Measurements reported in patent publication US20250243171A1, “QUINAZOLINE COMPOUNDS FOR TREATMENT OF DISEASE” (Arthrosi Therapeutics, Inc., priority 2021, published 2025).

Key:
Test in all cases: EC50 assay: Ba/F3 stable cell proliferation (CCK-8, 72 h)
Assay type in all cases: cell-based
Ba/F3 stable cells [1] = target: T1, Ba/F3 stable cells (Homo sapiens, UniProt P00533, DUP767-769, cells depend on it); conditions: Ba/F3-EGFR V769-D770insASV cells
T1 construct: EC50 Ba/F3-EGFR V769-D770insASV; other: Ba/F3-EGFR V769-D770insASV cells, 72 h, CCK-8
Summary of the method: (§1)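 Ba/F3 stable cells were seeded at 4,000 cells/90 μL/well in 96-well plates and held 2 h at 37° C. in 5% CO2, then given 10 μL of serially titrated compound (0.1% DMSO final). After 72 h at 37° C., CCK-8 reagent was added for 4 hours and absorbance read at 450 nm to derive EC50.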

Ba/F3 stable cells [2] = target: T2, Ba/F3 stable cells (Homo sapiens, UniProt P00533, DUP768-770, cells depend on it); conditions: Ba/F3-EGFR D770-N771insSVD cells
T2 construct: EC50 Ba/F3-EGFR D770-N771insSVD; other: Ba/F3-EGFR D770-N771insSVD cells, 72 h, CCK-8
Summary of the method: as §1

Ba/F3 stable cells [3] = target: T3, Ba/F3 stable cells (Homo sapiens, UniProt P00533, DUP771-773, cells depend on it); conditions: Ba/F3-EGFR H773-V774insNPH cells
T3 construct: EC50 Ba/F3-EGFR H773-V774insNPH; other: Ba/F3-EGFR H773-V774insNPH cells, 72 h, CCK-8
Summary of the method: as §1

Ba/F3 stable cells [4] = target: T4, Ba/F3 stable cells (Homo sapiens, UniProt P00533, INS763FQEA, cells depend on it); conditions: Ba/F3-EGFR A763-Y764insFQEA cells
T4 construct: EC50 Ba/F3-EGFR A763-Y764insFQEA; other: Ba/F3-EGFR A763-Y764insFQEA cells, 72 h, CCK-8
Summary of the method: as §1

Ba/F3 stable cells [5] = target: T5, Ba/F3 stable cells (Homo sapiens, UniProt P00533, T790M/L858R, cells depend on it); conditions: Ba/F3-EGFR L858R-T790M cells
T5 construct: EC50 Ba/F3-EGFR L858R-T790M; other: Ba/F3-EGFR L858R-T790M cells, 72 h, CCK-8
Summary of the method: as §1

Ba/F3 stable cells [6] = target: T6, Ba/F3 stable cells (Homo sapiens, UniProt P04626, DUP772-775, cells depend on it); conditions: Ba/F3-HER2 A775-G776insYVMA cells
T6 construct: EC50 Ba/F3-HER2 A775-G776insYVMA; other: Ba/F3-HER2 A775-G776insYVMA cells, 72 h, CCK-8
Summary of the method: as §1

T3 sequence (P00533 with tags, fused parts or gaps DUP771-773): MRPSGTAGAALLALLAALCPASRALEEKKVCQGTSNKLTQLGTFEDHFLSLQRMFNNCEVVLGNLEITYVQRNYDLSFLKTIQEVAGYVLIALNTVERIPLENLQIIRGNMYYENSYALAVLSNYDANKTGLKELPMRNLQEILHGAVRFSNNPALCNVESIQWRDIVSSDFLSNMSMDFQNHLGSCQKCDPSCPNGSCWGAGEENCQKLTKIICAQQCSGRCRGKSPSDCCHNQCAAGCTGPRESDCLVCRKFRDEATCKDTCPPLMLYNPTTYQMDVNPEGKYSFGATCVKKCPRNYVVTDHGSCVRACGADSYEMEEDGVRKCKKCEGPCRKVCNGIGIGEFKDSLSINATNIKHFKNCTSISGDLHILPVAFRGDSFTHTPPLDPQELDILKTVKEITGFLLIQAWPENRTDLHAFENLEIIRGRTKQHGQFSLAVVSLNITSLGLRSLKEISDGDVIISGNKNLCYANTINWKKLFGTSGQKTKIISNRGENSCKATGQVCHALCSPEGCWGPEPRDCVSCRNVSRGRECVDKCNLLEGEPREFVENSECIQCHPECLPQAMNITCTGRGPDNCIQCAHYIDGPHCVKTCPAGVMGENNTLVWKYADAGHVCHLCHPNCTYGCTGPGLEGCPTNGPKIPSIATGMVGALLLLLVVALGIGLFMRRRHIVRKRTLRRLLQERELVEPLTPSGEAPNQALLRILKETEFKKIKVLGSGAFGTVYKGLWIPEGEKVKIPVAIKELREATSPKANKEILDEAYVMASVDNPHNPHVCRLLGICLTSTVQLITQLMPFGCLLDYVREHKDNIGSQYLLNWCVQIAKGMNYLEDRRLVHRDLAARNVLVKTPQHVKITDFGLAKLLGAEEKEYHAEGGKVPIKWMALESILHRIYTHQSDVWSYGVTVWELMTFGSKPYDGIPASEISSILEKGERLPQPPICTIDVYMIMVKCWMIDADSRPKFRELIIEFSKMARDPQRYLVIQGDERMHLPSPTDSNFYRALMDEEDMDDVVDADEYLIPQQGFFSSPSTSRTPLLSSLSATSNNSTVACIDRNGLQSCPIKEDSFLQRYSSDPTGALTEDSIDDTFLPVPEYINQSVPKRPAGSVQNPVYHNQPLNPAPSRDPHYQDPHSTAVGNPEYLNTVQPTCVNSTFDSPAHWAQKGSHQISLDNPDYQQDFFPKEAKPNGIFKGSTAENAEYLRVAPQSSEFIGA
T6 sequence (P04626 with tags, fused parts or gaps DUP772-775): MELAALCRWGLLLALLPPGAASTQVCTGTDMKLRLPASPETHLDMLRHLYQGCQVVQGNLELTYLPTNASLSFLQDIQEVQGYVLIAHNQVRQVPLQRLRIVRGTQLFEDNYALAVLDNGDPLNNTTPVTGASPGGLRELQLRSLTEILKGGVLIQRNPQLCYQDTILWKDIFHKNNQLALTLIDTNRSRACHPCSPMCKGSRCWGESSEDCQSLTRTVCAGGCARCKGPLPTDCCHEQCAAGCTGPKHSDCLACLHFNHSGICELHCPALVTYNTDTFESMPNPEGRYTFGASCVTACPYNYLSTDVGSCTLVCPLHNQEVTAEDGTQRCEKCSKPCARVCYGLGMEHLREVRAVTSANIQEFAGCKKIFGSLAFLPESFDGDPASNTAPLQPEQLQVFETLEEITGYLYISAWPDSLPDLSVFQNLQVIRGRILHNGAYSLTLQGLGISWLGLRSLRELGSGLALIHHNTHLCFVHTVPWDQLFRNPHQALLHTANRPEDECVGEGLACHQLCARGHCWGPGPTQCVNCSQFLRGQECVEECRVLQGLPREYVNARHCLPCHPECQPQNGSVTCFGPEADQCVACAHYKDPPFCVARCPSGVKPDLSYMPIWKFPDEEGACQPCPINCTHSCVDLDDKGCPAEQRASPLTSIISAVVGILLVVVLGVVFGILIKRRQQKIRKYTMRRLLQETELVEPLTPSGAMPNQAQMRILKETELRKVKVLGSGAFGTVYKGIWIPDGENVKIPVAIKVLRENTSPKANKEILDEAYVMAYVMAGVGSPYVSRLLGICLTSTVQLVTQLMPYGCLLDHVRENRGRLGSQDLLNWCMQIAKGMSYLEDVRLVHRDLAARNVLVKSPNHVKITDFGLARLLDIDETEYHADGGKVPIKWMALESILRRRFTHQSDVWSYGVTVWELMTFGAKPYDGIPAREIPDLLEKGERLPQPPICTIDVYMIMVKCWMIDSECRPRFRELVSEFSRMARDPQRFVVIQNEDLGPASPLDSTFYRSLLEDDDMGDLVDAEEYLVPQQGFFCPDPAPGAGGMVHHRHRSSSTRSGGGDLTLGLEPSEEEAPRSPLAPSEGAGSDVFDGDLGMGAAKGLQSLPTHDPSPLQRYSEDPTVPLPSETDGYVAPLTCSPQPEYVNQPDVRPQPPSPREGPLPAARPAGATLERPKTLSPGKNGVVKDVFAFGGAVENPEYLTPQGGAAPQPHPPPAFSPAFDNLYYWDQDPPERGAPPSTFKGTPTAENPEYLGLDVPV
T5 sequence (P00533 whole entry T790M/L858R): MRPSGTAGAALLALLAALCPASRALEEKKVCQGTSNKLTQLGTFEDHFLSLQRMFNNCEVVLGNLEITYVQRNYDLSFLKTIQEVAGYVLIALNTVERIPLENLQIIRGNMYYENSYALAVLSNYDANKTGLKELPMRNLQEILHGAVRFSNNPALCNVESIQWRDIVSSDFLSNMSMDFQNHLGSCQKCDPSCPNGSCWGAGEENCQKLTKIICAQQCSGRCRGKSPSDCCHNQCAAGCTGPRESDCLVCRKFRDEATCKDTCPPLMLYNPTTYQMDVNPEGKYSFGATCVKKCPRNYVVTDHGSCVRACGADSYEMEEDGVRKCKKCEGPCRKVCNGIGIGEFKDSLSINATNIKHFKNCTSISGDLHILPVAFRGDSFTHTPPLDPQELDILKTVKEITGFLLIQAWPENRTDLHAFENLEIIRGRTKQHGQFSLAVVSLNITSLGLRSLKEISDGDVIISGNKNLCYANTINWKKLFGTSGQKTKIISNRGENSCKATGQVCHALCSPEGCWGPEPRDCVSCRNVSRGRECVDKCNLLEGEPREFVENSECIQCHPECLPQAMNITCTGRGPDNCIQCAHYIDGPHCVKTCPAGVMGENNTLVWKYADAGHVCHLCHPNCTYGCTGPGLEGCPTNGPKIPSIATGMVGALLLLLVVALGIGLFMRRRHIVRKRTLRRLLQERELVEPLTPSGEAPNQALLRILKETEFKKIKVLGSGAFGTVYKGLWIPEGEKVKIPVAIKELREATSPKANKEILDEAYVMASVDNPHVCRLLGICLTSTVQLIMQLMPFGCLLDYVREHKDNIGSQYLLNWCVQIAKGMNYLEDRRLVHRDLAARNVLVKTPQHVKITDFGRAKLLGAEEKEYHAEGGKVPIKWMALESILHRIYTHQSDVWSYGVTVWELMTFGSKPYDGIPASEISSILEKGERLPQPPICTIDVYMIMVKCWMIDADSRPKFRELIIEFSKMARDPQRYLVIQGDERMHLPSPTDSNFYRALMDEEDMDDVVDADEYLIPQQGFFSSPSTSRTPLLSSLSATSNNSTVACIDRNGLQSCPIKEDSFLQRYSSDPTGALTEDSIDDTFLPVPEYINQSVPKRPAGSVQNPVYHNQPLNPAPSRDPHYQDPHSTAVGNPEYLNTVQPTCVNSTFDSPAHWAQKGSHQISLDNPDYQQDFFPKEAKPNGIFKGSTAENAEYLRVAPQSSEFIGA
T2 sequence (P00533 with tags, fused parts or gaps DUP768-770): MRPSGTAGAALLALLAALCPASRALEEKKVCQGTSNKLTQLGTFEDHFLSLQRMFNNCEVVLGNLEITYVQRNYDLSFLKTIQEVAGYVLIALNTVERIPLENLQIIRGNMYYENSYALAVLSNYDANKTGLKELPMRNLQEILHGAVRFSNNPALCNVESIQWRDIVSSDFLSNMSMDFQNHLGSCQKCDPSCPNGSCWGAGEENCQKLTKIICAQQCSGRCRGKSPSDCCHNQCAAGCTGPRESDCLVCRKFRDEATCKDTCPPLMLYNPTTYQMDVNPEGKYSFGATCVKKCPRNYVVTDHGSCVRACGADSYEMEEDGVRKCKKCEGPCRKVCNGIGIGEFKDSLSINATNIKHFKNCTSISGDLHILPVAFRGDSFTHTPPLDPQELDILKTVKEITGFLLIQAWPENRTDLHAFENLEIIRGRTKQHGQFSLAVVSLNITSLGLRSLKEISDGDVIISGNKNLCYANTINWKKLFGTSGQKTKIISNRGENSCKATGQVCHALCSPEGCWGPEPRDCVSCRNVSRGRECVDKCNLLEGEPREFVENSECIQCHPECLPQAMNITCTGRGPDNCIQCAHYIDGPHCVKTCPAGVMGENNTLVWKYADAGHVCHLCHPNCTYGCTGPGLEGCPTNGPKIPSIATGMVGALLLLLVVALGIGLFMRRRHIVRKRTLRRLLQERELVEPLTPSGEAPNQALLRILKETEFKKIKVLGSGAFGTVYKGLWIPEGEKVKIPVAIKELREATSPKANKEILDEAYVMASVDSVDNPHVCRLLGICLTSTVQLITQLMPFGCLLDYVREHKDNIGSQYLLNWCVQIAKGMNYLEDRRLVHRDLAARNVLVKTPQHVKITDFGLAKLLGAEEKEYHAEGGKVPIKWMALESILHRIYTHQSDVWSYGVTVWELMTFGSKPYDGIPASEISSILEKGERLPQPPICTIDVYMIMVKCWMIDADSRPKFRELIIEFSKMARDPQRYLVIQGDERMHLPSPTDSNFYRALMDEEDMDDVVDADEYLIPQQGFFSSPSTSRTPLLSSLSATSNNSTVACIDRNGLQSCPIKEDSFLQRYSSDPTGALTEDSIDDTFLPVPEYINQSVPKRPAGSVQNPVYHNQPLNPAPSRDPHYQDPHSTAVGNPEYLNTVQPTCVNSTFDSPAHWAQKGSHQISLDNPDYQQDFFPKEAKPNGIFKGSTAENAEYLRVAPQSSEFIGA

EC50 (Ba/F3 stable cells [1]) [nM]	EC50 (Ba/F3 stable cells [2]) [nM]	EC50 (Ba/F3 stable cells [3]) [nM]	EC50 (Ba/F3 stable cells [4]) [nM]	EC50 (Ba/F3 stable cells [5]) [nM]	EC50 (Ba/F3 stable cells [6]) [nM]	Structure (SMILES)
> 1000	> 1000	> 1000	200 to 1000	> 1000	> 1000	C=CC(=O)N1CCC(Oc2cc3c(NC(=O)c4ccc(F)cc4)ncnc3cc2OC)CC1 [Compound 98, N-(6-((1-acryloylpiperidin-4-yl)oxy)-7-methoxyquinazolin-4-yl)-4-fluorobenzamide]
≤ 200	200 to 1000	≤ 200	≤ 200	≤ 200	≤ 200	C=CC(=O)N[C@H]1C[C@@H](Oc2cc3c(Nc4ccc(Cl)c(Cl)c4F)ncnc3cc2O[C@H]2CCOC2)C1 [Compound 99, N-((1R,3s)-3-((4-((3,4-dichloro-2-fluorophenyl)amino)-7-(((S)-tetrahydrofuran-3-yl)oxy)quinazolin-6-yl)oxy)cyclobutyl)acrylamide]
≤ 200	200 to 1000	200 to 1000	≤ 200	200 to 1000	200 to 1000	C=CC(=O)N[C@H]1C[C@@H](Oc2cc3c(Nc4ccc(Cl)c(Cl)c4F)ncnc3cc2OCCO)C1 [Compound 100, N-((1s,3s)-3-((4-((3,4-dichloro-2-fluorophenyl)amino)-7-(2-hydroxyethoxy)quinazolin-6-yl)oxy)cyclobutyl)acrylamide]
200 to 1000	> 1000	> 1000	≤ 200	> 1000	> 1000	C=CC(=O)N[C@H]1C[C@@H](Oc2cc3c(Nc4ccc(Cl)c(Cl)c4F)ncnc3cc2OCCN(C)C)C1 [Compound 101, N-((1s,3s)-3-((4-((3,4-dichloro-2-fluorophenyl)amino)-7-(2-(dimethylamino)ethoxy)quinazolin-6-yl)oxy)cyclobutyl)acrylamide]
≤ 200	≤ 200	≤ 200	≤ 200	≤ 200	≤ 200	[2H]C([2H])([2H])Oc1cc2ncnc(Nc3ccc(Cl)c(Cl)c3F)c2cc1O[C@H]1C[C@@H](NC(=O)C=C)C1 [Compound 102, N-((1s,3s)-3-((4-((3,4-dichloro-2-fluorophenyl)amino)-7-(methoxy-d3)quinazolin-6-yl)oxy)cyclobutyl)acrylamide]
≤ 200	≤ 200	≤ 200	≤ 200	≤ 200	≤ 200	C=CC(=O)N[C@H]1C[C@@H](Oc2cc3c(Nc4ccc(Cl)c(Cl)c4F)ncnc3cc2NC)C1 [Compound 103, N-((1s,3s)-3-((4-((3,4-dichloro-2-fluorophenyl)amino)-7-(methylamino)quinazolin-6-yl)oxy)cyclobutyl)acrylamide]
≤ 200	200 to 1000	≤ 200	≤ 200	200 to 1000	200 to 1000	C=CC(=O)N[C@H]1C[C@@H](Oc2cc3c(Nc4ccc(Cl)c(Cl)c4F)ncnc3cc2OC2COC2)C1 [Compound 104, N-((1s,3s)-3-((4-((3,4-dichloro-2-fluorophenyl)amino)-7-(oxetan-3-yloxy)quinazolin-6-yl)oxy)cyclobutyl)acrylamide]
≤ 200	≤ 200	≤ 200	≤ 200	≤ 200	≤ 200	C=CC(=O)N[C@H]1C[C@@H](Oc2cc3c(Nc4ccc(Cl)c(Cl)c4F)ncnc3cc2OCC)C1 [Compound 105, N-((1s,3s)-3-((4-((3,4-dichloro-2-fluorophenyl)amino)-7-ethoxyquinazolin-6-yl)oxy)cyclobutyl)acrylamide]
≤ 200	≤ 200	≤ 200	≤ 200	200 to 1000	≤ 200	C=CC(=O)N1CCC(Oc2cc3c(NCc4cccc(Cl)c4)ncnc3cc2OC)CC1 [Compound 106, 1-(4-((4-((3-chlorobenzyl)amino)-7-methoxyquinazolin-6-yl)oxy)piperidin-1-yl)prop-2-en-1-one]
200 to 1000	200 to 1000	200 to 1000	≤ 200	200 to 1000	> 1000	C=CC(=O)N1CCC(Oc2cc3c(OCc4cccc(Cl)c4)ncnc3cc2OC)CC1 [Compound 107, 1-(4-((4-((3-chlorobenzyl)oxy)-7-methoxyquinazolin-6-yl)oxy)piperidin-1-yl)prop-2-en-1-one]
> 1000	> 1000	200 to 1000	≤ 200	> 1000	> 1000	C=CC(=O)N1CCC(Oc2cc3c(NCc4ccc(Cl)cc4)ncnc3cc2OC)CC1 [Compound 108, 1-(4-((4-((4-chlorobenzyl)amino)-7-methoxyquinazolin-6-yl)oxy)piperidin-1-yl)prop-2-en-1-one]
> 1000	> 1000	> 1000	200 to 1000	> 1000	> 1000	C=CC(=O)N1CCC(Oc2cc3c(NCc4ccc(Cl)cc4Cl)ncnc3cc2OC)CC1 [Compound 109, 1-(4-((4-((2,4-dichlorobenzyl)amino)-7-methoxyquinazolin-6-yl)oxy)piperidin-1-yl)prop-2-en-1-one]
≤ 200	200 to 1000	≤ 200	≤ 200	200 to 1000	≤ 200	C=CC(=O)N1CCC(Oc2cc3c(NCc4ccccc4Cl)ncnc3cc2OC)CC1 [Compound 110, 1-(4-((4-((2-chlorobenzyl)amino)-7-methoxyquinazolin-6-yl)oxy)piperidin-1-yl)prop-2-en-1-one]
≤ 200	200 to 1000	≤ 200	≤ 200	200 to 1000	≤ 200	C=CC(=O)N1CCC(Oc2cc3c(NCc4cccc(F)c4)ncnc3cc2OC)CC1 [Compound 111, 1-(4-((4-((3-fluorobenzyl)amino)-7-methoxyquinazolin-6-yl)oxy)piperidin-1-yl)prop-2-en-1-one]
200 to 1000	> 1000	200 to 1000	≤ 200	200 to 1000	≤ 200	C=CC(=O)N1CCC(Oc2cc3c(NCc4ccccc4F)ncnc3cc2OC)CC1 [Compound 112, 1-(4-((4-((2-fluorobenzyl)amino)-7-methoxyquinazolin-6-yl)oxy)piperidin-1-yl)prop-2-en-1-one]
200 to 1000	> 1000	200 to 1000	≤ 200	> 1000	≤ 200	C=CC(=O)N1CCC(Oc2cc3c(NCc4ccc(Cl)c(F)c4)ncnc3cc2OC)CC1 [Compound 113, 1-(4-((4-((4-chloro-3-fluorobenzyl)amino)-7-methoxyquinazolin-6-yl)oxy)piperidin-1-yl)prop-2-en-1-one]
200 to 1000	200 to 1000	200 to 1000	≤ 200	≤ 200	≤ 200	C=CC(=O)N1CCC(Oc2cc3c(NCc4ccc(F)c(Cl)c4)ncnc3cc2OC)CC1 [Compound 114, 1-(4-((4-((3-chloro-4-fluorobenzyl)amino)-7-methoxyquinazolin-6-yl)oxy)piperidin-1-yl)prop-2-en-1-one]
> 1000	> 1000	> 1000	≤ 200	200 to 1000	≤ 200	C=CC(=O)N1CCC(Oc2cc3c(NCc4ccc(Cl)c(Cl)c4)ncnc3cc2OC)CC1 [Compound 115, 1-(4-((4-((3,4-dichlorobenzyl)amino)-7-methoxyquinazolin-6-yl)oxy)piperidin-1-yl)prop-2-en-1-one]

Structure (SMILES)	EC50 (Ba/F3 stable cells [1]) [nM]	EC50 (Ba/F3 stable cells [2]) [nM]	EC50 (Ba/F3 stable cells [3]) [nM]	EC50 (Ba/F3 stable cells [4]) [nM]	EC50 (Ba/F3 stable cells [5]) [nM]	EC50 (Ba/F3 stable cells [6]) [nM]
C=CC(=O)NC1CC(Oc2cc3c(C(=O)NCc4ccc(F)cc4)ncnc3cc2OC)C1 (stereo not drawn) [Compound 96, 6-(3-acrylamidocyclobutoxy)-N-(4-fluorobenzyl)-7-methoxyquinazoline-4-carboxamide]	> 1000	> 1000	> 1000	> 1000	> 1000	> 1000
C=CC(=O)N[C@H]1C[C@@H](Oc2cc3c(C(=O)N[C@H](C)c4ccc(F)cc4)ncnc3cc2OC)C1 [Compound 97, 6-((1s,3S)-3-acrylamidocyclobutoxy)-N-((R)-1-(4-fluorophenyl)ethyl)-7-methoxyquinazoline-4-carboxamide]	> 1000	> 1000	> 1000	> 1000	> 1000	> 1000
